Experiments:
HT-p21-9 cells [1] = experiment: Colony formation / proliferative potential after drug removal, HT-p21-9 cells; format: cell-based, human
Method: FIG. 1. Nutlin-3a converted senescence into quiescence. a. […] Cells were stained for beta-Gal and photographed (original magnification ×400). Bar scale—50 μm. b. […] Then cells were cultured in fresh medium until colonies become visible. Dishes were stained with crystal violet and photographed on day 4 (control) or on day 9 (IPTG- and nutlin-3a-treated).c. […] Before wash. Live HT-p21-9 cells (expressing GFP for better visualization of live cells) were photographed (original magnification ×100) under blue light. 3 d wash. Three days after drug removal. 9 d wash. Nine days after drug removal, cells were stained with crystal violet and photographed. d. Nutlin-3a dose response. […] After 3 days, the plates were washed and cells were incubated for an additional 9 days in fresh medium, stained with crystal violet and photographed. e. Colonies per dish. […] After 3 days, the plates were washed and cells were incubated for an additional 9 days in fresh medium. Colonies were counted and results are shown as percent of control (IPTG alone). f. Cells per dish. As in panel e. Cells were trypsinized and counted. Results are shown as percent of control (IPTG alone).
(§1) FIG. 3. […] Immunoblot. […] Immunoblot was performed as described in the methods for Example 1 below. b. Immunoblot. […] Immunoblot was performed as described in Methods. c. […] After 3 days, cells were washed and incubated in fresh medium w/o drugs for an additional 7 days. Cells were counted and are shown as percent of IPTG alone. d. […] Cells were treated with either IPTG alone (black bars) or IPTG plus rapamycin (white bars) or plus nutlin-3a (grey bars). On days 2, 3, 4, and 5 cells were lysed and protein content per well was measured. […] Cells were labeled with [^35S]methionine/cysteine as described in Methods for Example 1.
FIG. 6. […] Nine days after drug removal. a. Cell number per dish. Cells per dish were counted. b. Cell number per a colony. Number of cells per colony was calculated. A number of cells per colony was 200-250 (approximately equals to 8 divisions) by day 9.
Cell lines and reagents. HT-p21-9 and HT-p21-a cells are derivatives of HT1080 human fibrosarcoma cells, where p21 expression can be turned on or off using isopropyl-thio-galactosidase (IPTG) (7, 16, 28, 29, 36). […] HT-p16 cells are derivatives of HT1080 cells in which p16 expression can be turned on or off using IPTG (16, 36). WI-38-Tert, WI-38 are fibroblasts immortalized by telomerase. HT-p21-GSE56 cells: p53 inhibiting peptide GSE56 (18) was introduced into HT1080 p21-9 cells via a retroviral vector LXSE (37). Cells were grown in high glucose DMEM with 10% FC2 serum. WI-38-tert cells were grown in low glucose DMEM with 10% FCS. Rapamycin was obtained from LC Laboratories (Woburn, Mass.). IPTG (final concentration of 50 μg/ml) and FC2 were obtained from Sigma-Aldrich (St. Louis, Mo.).
Colony formation assay. Plates were fixed and stained with 1.0% methylene blue or with crystal violet (13).

HT-p21-9 cells [2] = conditions: HT-p21-9 cells; Huang et al. 2009; cited from earlier work
HT-p21-9 cells [3] = experiment: Metabolic labeling, [35S]methionine/cysteine incorporation (protein synthesis); format: cell-based, human; conditions: IPTG-treated cells, 24 h treatment
Method: as §1
FIG. 8. Effects of IPTG and 500 nM rapamycin on protein synthesis ([^35S]methionine/cysteine incorporation). Cells were treated as indicated for 24 hrs and then labeled with [^35S]methionine/cysteine as described in Methods for Example 1.
Metabolic labeling. HT-p21-9 cells were seeded at 25,000 cells/well in 12-well plates. On the next day, cells were treated with drugs. After 24 h, cells were labeled with 30 μCi [^35S]methionine/cysteine (Amersham) per ml of Met/Cys-free Dulbecco's modified Eagle's medium (Invitrogen) for 1 h at 37° C. Cells were washed with PBS and lysed in 1% SDS, with 0.5% BSA. […] Filters were air-dried and counted using liquid scintillation counter.

mTOR pathway = experiment: Immunoblot for p53, p-S6, p-S6K in WI-38-tert fibroblasts; format: cell-based, human
Method: FIG. 4. […] HT-p21-a cells were treated with IPTG and infected with Ad-p53. After 3 days, cells were photographed (original magnification ×200): Upper panel. Under blue light to visualize cells expressing p53 (green cells). Lower panel. Under visible light to visualize all cells. Red arrows indicate cells lacking p53 expression. All of these cells show large, flat cell morphology. Green arrows indicate cells expressing p53. b-d. […] After 1 day, cells were lysed and immunoblot was performed as described in Methods for Example 1. c. […] Cells were then stained for beta-Gal activity and microphotographed. Scale bar—50 μm.d. […] Cells were then trypsinized and counted. […] Results are shown as percent of control.
FIG. 12. […] Immunoblot for p53, p-S6, p-S6K, S6 and actin was performed as described in Methods for Example 1.
Immunoblot analysis. Proteins were separated on 4-15% gradient Tris-HCl gels (Bio-Rad). The following antibodies were used: mouse anti-actin from Santa Cruz Biotechnology, rabbit anti-phospho-S6 (Ser240/244) and (Ser235/236), mouse anti-S6, mouse anti-phospho-p70 S6 kinase (Thr389), mouse anti-p21 and anti-p53, rabbit anti-phospho-4E-BP1 (Thr37/46) from Cell Signaling; mouse anti-4E-BP1 from Invitrogen, mouse anti-p53 (Ab-6) from Calbiochem.

HT-p21-GSE56 cells = experiment: Proliferation, senescence and proliferative potential of HT-p21-GSE56 cells (p53 function blocked); format: cell-based, human; conditions: 3 days, washed, fresh medium
Method: Cell lines and reagents. […] WI-38-Tert, WI-38 are fibroblasts immortalized by telomerase. […] Cells were grown in high glucose DMEM with 10% FC2 serum. WI-38-tert cells were grown in low glucose DMEM with 10% FCS. Rapamycin was obtained from LC Laboratories (Woburn, Mass.). IPTG (final concentration of 50 μg/ml) and FC2 were obtained from Sigma-Aldrich (St. Louis, Mo.).

[4] = 200 μM H2O2 30 min, then 10 μM nutlin-3a, 1 day

Structure (SMILES): COc1ccc(C2=N[C@@H](c3ccc(Cl)cc3)[C@@H](c3ccc(Cl)cc3)N2C(=O)N2CCNC(=O)C2)c(OC(C)C)c1 [nutlin-3a]
- proliferative potential and clonogenicity of IPTG-treated cells (HT-p21-9 cells [1]; IPTG plus nutlin-3a 3 days, washed, fresh medium): retained the proliferative potential and clonogenicity
- number of cells per colony (HT-p21-9 cells [1]; IPTG+nutlin-3a 3 days, day 9 after drug removal): 200-250
- potency in suppression of senescence (preservation of proliferative potential) (HT-p21-9 cells [1]; IPTG-treated HT-p21-9 cells): equally potent
- reversibility of arrest (colony formation upon removal) (HT-p21-9 cells [1]; nutlin-3a alone 3 days, then washed): reversible arrest
- further suppression of senescence by nutlin-3a in the presence of rapamycin (HT-p21-9 cells [1]; rapamycin (500 nM) at doses that completely inhibit mTOR): could not further suppress senescence
- cell cycle arrest on induction of p53 by nutlin-3a (HT-p21-9 cells [2]): reversible cell cycle arrest (quiescence)
- protein synthesis ([35S]methionine/cysteine incorporation) (HT-p21-9 cells [3]): inhibited ^35S-methionine/cysteine incorporation in IPTG-treated HT-p21-9 cells in a dose-dependent manner
- S6 phosphorylation in H2O2-treated WI-38-tert cells (mTOR pathway; [4]): inhibited S6 phosphorylation
- p53 level in H2O2-treated WI-38-tert cells (mTOR pathway; [4]): induced p53
- S6K and S6 phosphorylation (mTOR pathway; concentrations that induce p53, 24 hr): inhibited S6K and S6 phosphorylation
- colony formation and proliferative potential (PP) in IPTG-treated HT-p21-GSE56 cells (HT-p21-GSE56 cells): did not preserve colony formation and proliferative potential (PP)
